The numbers were not newly measured in patent US20090226465A1, “MACROCYCLIC DEPSIPEPTIDE ANTIBODY-DRUG CONJUGATES AND METHODS” (priority 2005, published 2009), which cites them from elsewhere.

SMILES strings stand for the structures. *1 amine or outer side, *2 acyl side, *3 side chain or, on linkers, in order; H or OH if unused. Where a SMILES comes first, the peptide text is derived from it. Bridges are numbered along the chain shown (N, C = ends). [ ]: non-standard residue; d: D form. The star is where a group is joined. X1 = CC[C@H](C)[C@@H](N[*:1])[C@@H](O)CC(=O)O[C@H](C(=O)[C@H](C)C(=O)[*:2])C(C)C; NMeY = CN[C@@H](Cc1ccc(O)cc1)C(=O)O; dNMeL = CN[C@H](CC(C)C)C(=O)O; Pyruvoyl = CC(=O)C(=O)*

Data set [1] relates to panel of solid tumor cell lines. The settings on record: read-out: in vitro IC50.

By IC50 is commonly meant the concentration needed to halve the response being measured. On to `CC[C@H](C)[C@H]1NC(=O)[C@@H](NC(=O)[C@@H](CC(C)C)N(C)C(=O)[C@@H]2CCCN2C(=O)C(C)=O)[C@@H](C)OC(=O)[C@H](Cc2ccc(OC)cc2)N(C)C(=O)[C@@H]2CCCN2C(=O)[C@H](CC(C)C)NC(=O)[C@@H](C)C(=O)[C@H](C(C)C)OC(=O)C[C@@H]1O` [Aplidin] (Pyruvoyl-P[dNMeL]T[X1]LP[NMeY](Me); ester 3-C), for which the “half life in plasma” value was 4 to 7 h. Besides, the IC50 in data set [1] is 1 to 100 nM.
